Tests used:
[1] = 101.33 kPa, Liquid, Vibrating tube method
[2] = xn = mol fraction of the nth substance listed; settings: 101 kPa, Liquid, Vibrating tube method

CCCCCC[n+]1ccn(C)c1.O=S(=O)([N-]S(=O)(=O)C(F)(F)F)C(F)(F)F
[1]
Settings | mass density [kg/m3]
288.15 K | 1381.4
298.15 K | 1372
308.15 K | 1362.7
318.15 K | 1353.5

CCCCn1cc[n+](C)c1.CS(=O)(=O)[O-] [1-butyl-3-methylimidazolium methanesulfonate] + O
mass density [kg/m3], [2]
Settings | x1 = 0.025 | x1 = 0.05 | x1 = 0.075 | x1 = 0.1 | x1 = 0.148 | x1 = 0.199 | x1 = 0.251 | x1 = 0.298 | x1 = 0.346 | x1 = 0.441
298.15 K | 1038.1 | 1068.4 | 1089.3 | 1104.5 | 1123.9 | 1137.1 | 1145.7 | 1151.3 | 1154.9 | 1160.6
313.15 K | 1031.2 | 1059.7 | 1079.7 | 1093.5 | 1113.6 | 1126.8 | 1135.5 | 1141.2 | 1144.8 | 1150.6
323.15 K | 1025.9 | 1053.6 | 1073.1 | 1087.6 | 1106.6 | 1119.9 | 1128.6 | 1134.4 | 1138.1 | 1144
333.15 K | 1020.1 | 1047.1 | 1066.2 | 1080.5 | 1099.5 | 1112.9 | 1121.7 | 1127.6 | 1131.4 | 1137.3
343.15 K | 1013.9 | 1040.3 | 1059.2 | 1073.3 | 1092.3 | 1105.7 | 1114.7 | 1120.7 | 1124.6 | 1130.7
358.15 K | 1003.9 | 1029.7 | 1048.2 | 1062.3 | 1081.2 | 1094.9 | 1104.1 | 1110.3 | 1114.4 | 1120.7

O [water] + CCCCn1cc[n+](C)c1.CS(=O)(=O)[O-]
[2], x2 = 0
Settings | mass density [kg/m3]
333.15 K | 983.2
343.15 K | 977.8
358.15 K | 968.3

Reference: the NIST ThermoML archive (doi:10.1021/je500053c)
